How the values were obtained:
HMGN1 [1] = test: HMGN1 ELISA in culture medium of A549 cancer cells (Example 12, Table 66); assay type: cell-based, human; details: Homo sapiens, A549, doxorubicin-induced senescent A549 cells, test compound 30 μM, ELISA, DMSO = 100; read-out: HMGN1 (amount of HMGN1 secreted in the cell culture)
[2] = system: normally proliferating foreskin cells; test: survival of normally proliferating foreskin cells treated with medium supernatant (secreted fluid) of compound-killed cells (Example 13, Table 68); assay type: cell-based, human; details: after 3 days
Protocol: After treating cells with the test compound at a high concentration that induces the death of most cells in both non-senescence-induced and senescence-induced cells, the cells were washed three times with PBS to remove the test compound, and replaced with fresh medium and cultured for an additional 3 hours at the time when the compound has entered into the cell but has not yet induced cell death (approximately 1 to 3 hours after compound treatment). During this additional culture, by checking with an optical microscope, etc., the medium supernatants containing secreted fluid from normally proliferating and senescent cells in which cell death was induced were obtained. The obtained medium supernatant was replaced with the medium of normally proliferating and senescent cells, respectively, and cell survival rate was measured after 3 days.

HMGN1 [3] = test: HMGN1 ELISA in culture medium of foreskin cells (Examples 10, 11; Tables 62, 63, 64); assay type: cell-based, human; details: Homo sapiens, 30 μM test compound, doxorubicin-treated foreskin cells, DMSO = 100; read-out: HMGN1
senescent foreskin cells = test: survival of senescent foreskin cells treated with medium supernatant (secreted fluid) of compound-killed cells (Example 13, Tables 68, 69); assay type: cell-based, human; details: supernatant-treated cells: senescent cells, after 3 days
Protocol: (§1) After 3 days, cell viability was measured using CellTiter-Glo Luminescent Cell Viability Assay (Promega) or light microscopy.

A549 = test: CellTiter-Glo cell viability of senescent A549 cancer cells (Example 12, Table 67); assay type: cell-based, human; details: Homo sapiens, A549, doxorubicin-induced senescent A549 cancer cells, CellTiter-Glo, read-out: Survival (%); for viability at 1.1 µM: 1.1 μM test compound; for viability at 10 µM: 10 μM test compound; for viability at 30 µM: 30 μM test compound
[4] = system: foreskin cells in which senescence was induced by doxorubicin; test: CellTiter-Glo cell viability of doxorubicin-induced senescent foreskin cells (Examples 1-2, 10, 11, 13; Tables 4, 63, 65); assay type: cell-based, human; details: for viability at 1.1 µM / viability at 10 µM / viability at 30 µM / viability at […]: Homo sapiens, 72 h, doxorubicin-induced senescent foreskin cells, CellTiter-Glo, 0 μM = 100, read-out: Survival (%); for viability at 1.1 µM: 1.1 μM test compound; for viability at 10 µM: 10 μM test compound; for viability at 30 µM: 30 μM test compound; for viability at […]: […] test compound
Protocol: as §1

[5] = system: foreskin cells in which senescence was not induced; test: CellTiter-Glo growth of foreskin cells in which senescence was not induced (Tables 5, 12); details: 30 μM, 3 days
Protocol: as §1

p16, MMP3, IL6 = p16, MMP3, IL6 mRNA qRT-PCR in groin fat of obese mice given senescent cells killed by test compounds (Example 16, Table 72); assay type: in vivo, C57BL6J mice; details: obese mice administered senescent cells whose death was induced by the test compound
Text: To obtain preadipocytes, groin fat tissue was collected from an 8-week-old female C57BL6J mouse (purchased from KRIBB Laboratory Animal Resource Center). The fat tissue was cut into small pieces and treated with collagenase to decompose the fat tissue, then centrifuged to collect the stromal vascular fraction (SVF) containing preadipocytes. It was washed with a washing medium (HBSS, purchased from GenDEPOT; 3.5% Albumin Fraction V, purchased from GenDEPOT; 100 U/ml Penicillin & Streptomycin, purchased from Invitrogen), mixed again, and extracted by filtering through a 100 μm nylon mesh. The isolated preadipocytes were cultured in the designated medium (DMEM, purchased from GenDEPOT; 20% FBS, purchased from GenDEPOT; 100 U/ml Penicillin & Streptomycin, purchased from Invitrogen). In the same manner as Example 1, cells were treated with doxorubicin at a concentration of 250 nM for 24 hours and cultured for an additional 21 days to induce cell senescence. Cells were treated with doxorubicin at a concentration of 250 nM for 24 hours and cultured for an additional 21 days to induce cell senescence. By treating the test compounds in the same manner as in Example 13, it was confirmed using an optical microscope that the death of most senescent cells was induced. The killed preadipocytes were washed using PBS (purchased from Welgene) and then mixed with PBS at a concentration of 5×10^5 cells/200 μl. It was administered subcutaneously to 8-week-old female C57BL6J mice (purchased from KRIBB Laboratory Animal Resource Center). At 7 and 10 days after administration of the killed senescent cells, 2 million senescent preadipocytes were mixed in 200 μl of PBS and administered into the abdominal cavity of mice. After administration of killed senescent cells, obesity was induced in mice with a high-fat diet (DIO) for 8 weeks in the same manner as in Example 9-1. Afterwards, the mouse was sacrificed in the same manner as in Example 7-2, total RNA was extracted from the groin fat tissue, and qRT-PCR was performed and analyzed using the synthesized cDNA. […] The mRNA amount of p16, MMP3, and IL6 without administration of senescent cells whose death was induced by the test compounds was calculated as 100%, and the amount of p16, MMP3, and IL6 after administration of the senescent cells whose death was induced by the test compounds was compared with them. Furthermore, an open field test was performed to analyze aging-related frailty in mice using the same method as Example 7-7. […] The amount of activity evaluation without administration of senescent cells whose death was induced by the test compounds was calculated as 100% and compared it with the amount of activity evaluation after administration of senescent cells whose death was induced by the test compounds. […]

[6] = open field test in obese mice given senescent cells killed by test compounds (Example 16, Table 72); assay type: in vivo, C57BL6J mice; details: obese mice administered senescent cells whose death was induced by the test compound
Text: To obtain preadipocytes, groin fat tissue was collected from an 8-week-old female C57BL6J mouse (purchased from KRIBB Laboratory Animal Resource Center). The fat tissue was cut into small pieces and treated with collagenase to decompose the fat tissue, then centrifuged to collect the stromal vascular fraction (SVF) containing preadipocytes. It was washed with a washing medium (HBSS, purchased from GenDEPOT; 3.5% Albumin Fraction V, purchased from GenDEPOT; 100 U/ml Penicillin & Streptomycin, purchased from Invitrogen), mixed again, and extracted by filtering through a 100 μm nylon mesh. The isolated preadipocytes were cultured in the designated medium (DMEM, purchased from GenDEPOT; 20% FBS, purchased from GenDEPOT; 100 U/ml Penicillin & Streptomycin, purchased from Invitrogen). In the same manner as Example 1, cells were treated with doxorubicin at a concentration of 250 nM for 24 hours and cultured for an additional 21 days to induce cell senescence. Cells were treated with doxorubicin at a concentration of 250 nM for 24 hours and cultured for an additional 21 days to induce cell senescence. By treating the test compounds in the same manner as in Example 13, it was confirmed using an optical microscope that the death of most senescent cells was induced. The killed preadipocytes were washed using PBS (purchased from Welgene) and then mixed with PBS at a concentration of 5×10^5 cells/200 μl. It was administered subcutaneously to 8-week-old female C57BL6J mice (purchased from KRIBB Laboratory Animal Resource Center). At 7 and 10 days after administration of the killed senescent cells, 2 million senescent preadipocytes were mixed in 200 μl of PBS and administered into the abdominal cavity of mice. After administration of killed senescent cells, obesity was induced in mice with a high-fat diet (DIO) for 8 weeks in the same manner as in Example 9-1. Afterwards, the mouse was sacrificed in the same manner as in Example 7-2, total RNA was extracted from the groin fat tissue, and qRT-PCR was performed and analyzed using the synthesized cDNA. […] The mRNA amount of p16, MMP3, and IL6 without administration of senescent cells whose death was induced by the test compounds was calculated as 100%, and the amount of p16, MMP3, and IL6 after administration of the senescent cells whose death was induced by the test compounds was compared with them. Furthermore, an open field test was performed to analyze aging-related frailty in mice using the same method as Example 7-7. […] The amount of activity evaluation without administration of senescent cells whose death was induced by the test compounds was calculated as 100% and compared it with the amount of activity evaluation after administration of senescent cells whose death was induced by the test compounds.

[7] = system: foreskin cells in which aging was induced by doxorubicin; test: cell viability of senescent foreskin cells with caspase inhibitor QVD-Oph (Example 10, Table 61); assay type: cell-based, human; details: QVD-Oph 20 μM alone; doxorubicin-senescent foreskin cells
[8] = supernatant from compound-treated medium without cells (No Cells)
[9] = supernatant from death-induced proliferating foreskin cells (compound 30 μM)
[10] = supernatant from death-induced senescent foreskin cells (compound 30 μM)

| SMILES | activity at 30 µM (HMGN1 [1]) | activity at 30 µM (HMGN1 [3]) | viability at 1.1 µM (A549) | viability at 10 µM (A549) | viability at 30 µM (A549) | viability at 1.1 µM [4] | viability at 10 µM [4] | viability at 30 µM [4] | viability at […] [4] | IL6 mRNA (%) (p16, MMP3, IL6) | MMP3 mRNA (%) (p16, MMP3, IL6) | p16 mRNA (%) (p16, MMP3, IL6) | Open Field Test Time in Center (%) [6] | also measured |
| --- | --- | --- | --- | --- | --- | --- | --- | --- | --- | --- | --- | --- | --- | --- |
| Cc1onc(C(=O)N2CCN(C(c3ccc(Cl)cc3)c3ccc(Cl)cc3)CC2)c1N(O)O [LX-401] | 277% | 263% | 89.7% | 42.1% | 16.8% | 20.4% | 10.6% | 7.8% | 12.4% | – | – | – | – | Survival (%) [2, 8]: 97.9 (±7.2) %; Survival (%) [2, 9]: 88.1 (±4.2) %; Survival (%) [2, 10]: 95.1 (±5.7) %; Survival (%) (senescent foreskin cells; [8]): 101.1 (±5.5) %; Survival (%) (senescent foreskin cells; [9]): 48.2 (±4.2) %; Survival (%) (senescent foreskin cells; [10]): 42.2 (±4)^ %; cell death, senescent cells ([4]; 30 μM, 3 days): induced the death of most cells; cell death, normally proliferating cells [5]: induced the death of most cells |
| COCC1(CO)C(=O)C2CCN1CC2 (centres unmarked) [LX-701, Eprenetapopt, reference compound] | 297% | 277% | 99.2% | 91% | 11.3% | 99.3% | 45.9% | 27.4% | 100% | 68.2 (±14.3) % | 72.5 (±9.2) % | 81.9 (±6.8) % | 181.8 (±27.1) % | – |
| CCOc1ccccc1-n1c(CN2CCNCC2)nc2ccccc2c1=O [LX-1002] | 296% | 286% | 47.6% | – | – | 4.2% | – | – | – | 74.4 (±8.5) % | 68.1 (±13.8) % | 77.4 (±8.6) % | 141.1 (±18.3) % | – |
| Fc1ccc(-n2cc(CCCCN3CCC4(CC3)OCc3ccccc34)c3ccccc32)cc1 [LX-1102, Siramesine, reference compound] | 324% | 271% | 99.5% | 17.7% | – | 94% | 3.1% | – | 13.9% | 76.2 (±7.1) % | 95.4 (±9.6) % | 82.9 (±4.8) % | 146.2 (±17.1) % | – |
| CCc1ccc(C(=O)C(C)CN2CCCCC2)cc1 (centres unmarked) [LX-1401, Eperisone, reference compound] | 287% | 296% | 99% | 49.9% | 22.8% | 96.4% | 10.2% | 9% | 88.1% | 72.8 (±10.4) % | 75.1 (±9.4) % | 83.4 (±6.9) % | 166.7 (±14.8) % | – |
| C[C@@H]1CC[C@@]23C[C@H](O)C(=O)[C@@]2(O)[C@]1(C)[C@H](OC(=O)CCl)C[C@@H](C1=CCn2c(=O)n(-c4ccccc4)c(=O)n2C1)[C@@H]3C [LX-1801, (2S,3aS,4S,5R,7R,8S,8aS,11R)-7-(1,3-Dioxo-2-phenyl-2,3,5,8-tetrahydro-1H-[1,2,4]triazolo[1,2-a]pyridazin-6-yl)-2,3a-dihydroxy-4,8,11-trimethyl-3-oxooctahydro-1H-4,8a-propanoazulen-5-yl 2-Chloroacetate] | 295% | 291% | 60.6% | 25.1% | – | 8.7% | – | – | – | 56.4 (±12.4) % | 67.8 (±13.1) % | 62.5 (±9.4) % | 173.4 (±18.6) % | – |
| CC1(C)CC[C@]2(NC(=O)C(C)(F)F)CC[C@]3(C)[C@H](C(=O)C=C4[C@@]5(C)C=C(C#N)C(=O)C(C)(C)[C@@H]5CC[C@]43C)[C@@H]2C1 [LX-2101, Omaveloxolone, reference compound] | 297% | 274% | 71.6% | – | – | 1.8% | – | – | – | 75.9 (±6.7) % | 68.3 (±16.4) % | 73.8 (±9.7) % | 144.9 (±26.6) % | – |
| CC(C)[C@H](NC(=O)c1ccc2ccccc2n1)C(=O)N[C@@H](CC(=O)O)C(=O)COc1c(F)cccc1F [QVD] | – | – | – | – | – | – | – | – | – | – | – | – | – | Survial (%) [7]: 105.1 (±4.7) % |
